Among the data in patent US20250257041A1, “INDUCERS OF INTEGRATED STRESS RESPONSE TO TREAT CANCER” (The Board of Regents of The University of Texas System, priority 2022, published 2025) are IC50 values, retold here.

The IC50 is the point on the concentration scale where inhibition reaches its midpoint.

For this assay, the system named is HCT116 WT. The experiment in a line: Proliferation of HCT116 colorectal cell line, Cell TiterGlo. In kind it is cell-based, human. The conditions noted are these: Homo sapiens, HCT-116, wild type HCT116; 10-point dose response in triplicate; multiple values = separate independent experiments; read-out: HCT116 IC50 (uM) HCT116 WT. Here is the method:
Briefly, compounds were tested for their effect on proliferation of HCT116 colorectal cell lines using Cell TiterGlo (Promega). Each compound was tested in a 10-point dose response experiment in triplicate. Multiple values in the column titled HCT116 WT reflect separate independent experiments. The three columns titled “HCT116 WT (repeat)”, “HCT116-CGN2KO” and “HCT116 WT+ISRIB” provide data for selected compounds that were tested simultaneously under three conditions. The HCT116 WT column lists IC50 against the wild type HCT116 colorectal cancer cell line. The HCT116-CGN2KO lists IC50 data for cells in which one component of the integrated stress response, GCN2, has been knocked out using CRISPR technology.
On the technique in general: ATP-based viability assays read luminescence as a measure of living cells.
Turning to `C#Cc1cccc(C(=O)Nc2cc(-c3ccc(NC(=O)c4cccc(C5(C(F)(F)F)N=N5)c4)cc3)nn2C)c1` [SW393243, 3-Ethynyl-N-(1-methyl-3-(4-(3-(3-(trifluoromethyl)-3H-diazirin-3-yl)benzamido)phenyl)-1H-pyrazol-5-yl)benzamide], the IC50 is 17 µM. Under `Cn1nc(-c2ccc(NC(=O)c3ccccc3Cl)cc2)cc1NC(=O)c1ccccc1F` [SW393244, 2-chloro-N-(4-(5-(2-fluorobenzamido)-1-methyl-1H-pyrazol-3-yl)phenyl)benzamide] stands about 0.01 µM; under `Cn1nc(-c2ccc(NC(=O)c3ccccc3-c3ccccc3)cc2)cc1NC(=O)c1ccccc1` [SW393270, N-(4-(5-benzamido-1-methyl-1H-pyrazol-3-yl)phenyl)-[1,1′-biphenyl]-2-carboxamide], 0.13 µM. Regarding `COc1cc(-c2cc(NC(=O)c3ccccc3)n(C)n2)ccc1NC(=O)c1ccccc1Cl` [SW393279, N-(4-(5-benzamido-1-methyl-1H-pyrazol-3-yl)-2-methoxyphenyl)-2-chlorobenzamide], the IC50 is over 10 µM. Next, `C#CCOCc1ccccc1C(=O)Nc1ccc(-c2cc(NC(=O)c3cccc(N=[N+]=[N-])c3)n(C)n2)cc1` [SW393280, N-(4-(5-(3-azidobenzamido)-1-methyl-1H-pyrazol-3-yl)phenyl)-2-((prop-2-yn-1-yloxy)methyl)benzamide]: 0.12 µM; `Cn1nc(-c2ccc(C(=O)Nc3ccccc3Cl)cc2)cc1NC(=O)c1ccccc1` [SW393293, 4-(5-benzamido-1-methyl-1H-pyrazol-3-yl)-N-(2-chlorophenyl)benzamide]: 0.19 µM. Turning to `Cn1nc(-c2ccc(NC(=O)c3ccccc3Cl)cc2Cl)cc1NC(=O)c1ccccc1` [SW393294, N-(4-(5-benzamido-1-methyl-1H-pyrazol-3-yl)-3-chlorophenyl)-2-chlorobenzamide], the IC50 worked out at 0.28 µM.

Turning to `O=C(Nc1nc(-c2ccc(NC(=O)c3ccccc3Cl)cc2)cs1)c1ccccc1` [SW393296, N-(4-(2-Benzamidothiazol-4-yl)phenyl)-2-chlorobenzamide], the IC50 stood at 1.9 µM.

Consider `Cn1nc(-c2ccc(NC(=O)c3ccccc3CN3CCOCC3)cc2)cc1NC(=O)c1ccccc1` [SW393298, N-(4-(5-Benzamido-1-methyl-1H-pyrazol-3-yl)phenyl)-2-(morpholinomethyl)benzamide], for which the IC50 amounted to 0.15 µM.

In the case of `Cn1nc(-c2ccc(NC(=O)c3ccccc3COCc3cn(CCOCCNC(=S)Nc4ccc(-c5c6ccc(=O)cc-6oc6cc(O)ccc56)c(C(=O)O)c4)nn3)cc2)cc1NC(=O)c1ccccc1` [SW393345, 5-(3-(2-(2-(4-(((2-((4-(5-benzamido-1-methyl-1H-pyrazol-3-yl)phenyl)carbamoyl)benzyl)oxy)methyl)-1H-1,2,3-triazol-1-yl)ethoxy)ethyl)thioureido)-2-(6-hydroxy-3-oxo-3H-xanthen-9-yl)benzoic acid], the IC50 stood at 11.4 µM. Next, `Cn1nc(-c2ccc(NC(=O)C3CCCCC3)cc2)cc1NC(=O)c1ccccc1` [SW394442, N-(3-(4-(Cyclohexanecarboxamido)phenyl)-1-methyl-1H-pyrazol-5-yl)benzamide]: 0.024 µM; `Cn1nc(-c2ccc(NC(=O)c3cccnc3Cl)cc2)cc1NC(=O)c1ccccc1` [SW394443, N-(4-(5-Benzamido-1-methyl-1H-pyrazol-3-yl)phenyl)-2-chloronicotinamide]: 0.02 µM; `Cn1nc(C2CCC(NC(=O)c3ccccc3Cl)CC2)cc1NC(=O)c1ccccc1` (stereo not drawn) [SW394444, N-(4-(5-benzamido-1-methyl-1H-pyrazol-3-yl)cyclohexyl)-2-chlorobenzamide]: over 50 µM.

As to `Cn1nc(-c2ccc(NC(=O)c3ccncc3Cl)cc2)cc1NC(=O)c1ccccc1` [SW394446, N-(4-(5-Benzamido-1-methyl-1H-pyrazol-3-yl)phenyl)-3-chloroisonicotinamide], the 50% inhibitory concentration (IC50) worked out at 0.05 µM. Consider `Cn1nc(-c2ccc(NC(=O)c3ncccc3Cl)cc2)cc1NC(=O)c1ccccc1` [SW394447, N-(4-(5-Benzamido-1-methyl-1H-pyrazol-3-yl)phenyl)-3-chloropicolinamide], for which the IC50 is 0.58 µM.
